Read-outs that look alike come from different tables or passages of the source. Where a SMILES comes first, the peptide text is derived from it. Bridges are numbered along the chain shown (N, C = ends). Roman numbers before positions name the chains, in order. Where no end group is shown, it is not given here.
Experiments:
C.albicans CCARM 14020 = assay type: cell-based, Candida albicans; details: CCARM 14020, 24 h
Experimental: (§1) To determine the candidacidal activity of the peptides, we used Candida strains obtained from the Culture collection of antimicrobial resistant microbes at Seoul Women’s University in Korea. These included three Candida albicans (CCARM 14020, 14021, 14022), Candida guillermondi and Candida tropicalis. In addition, Candida albicans SC5413 was kindly provided by Dr Jeong-Yoon Kim at the Department of Microbiology & Molecular Biology, Chungnam University, Korea. Yeast were cultured overnight at 30°C in 10 ml of yeast extract-peptone-dextrose (YPD) broth (Qbiogene), then diluted in 10 ml of YPD broth to OD600 = 0.2 and grown for an additional 4 h with shaking at 30°C until OD600 = 0.8 in order to obtain mid-log phase cultures. The peptides (Hst 5, P113, HHP1, HHP2, PH1, PH2, di-PH1, di-PH2, WP1, di-WP2, di-15Hc and di-18Hc) in this study were synthesized by using standard solid-phase synthesis protocols and were purified by reversed-phase high-performance liquid chromatography at Anygen Inc. (Korea). FITC-labeled peptides (F-Hst5, F-P113, F-HHP1, F-di-PH2, F-di-WP2 and F-di-18Hc) were also synthesized by 6-aminohexnoic acid linker at Anygen (Korea) for confocal experiments.
(§2) The candidacidal activities of the peptides were tested by using standard microdilution plate assays, radial diffusion assays and broth dilution assay slightly modified from the procedure recommended by the National Committee for Clinical Laboratory Standards. For the candidacidal assays, C. albicans cells were grown in YPD medium and washed twice with 10 mM sodium phosphate buffer (NaPB; Na2HPO4, NaH2PO4, pH 7.4). The cells (1 x 10^6) were then mixed with different concentrations of peptides and incubated at 30°C with constant shaking for 60 min. For energy depletion experiments, cells were pre-incubated with 10 mM NaPB containing 5 mM NaN3 at 30°C for 60 min before the addition of peptides. The cell suspensions were diluted in 10 mM NaPB and aliquots of 500 cells were spread onto YPD agar plates then incubated for 24 h at 30°C to visualize the surviving colonies. Cell survival was expressed as a percentage of that for the control, and the loss of viability was calculated as [1 x (number of colonies from peptide-treated cells/number of colonies from control cells)] x 100. Candidacidal assays were performed in triplicate. For the radial diffusion assay, C. albicans cells were grown in YPD medium overnight and washed twice with 10 mM NaPB. Washed yeast-phase C. albicans cells (1 x 10^6 CFU) were trapped in thin underlay gels containing 9 mM sodium phosphate, 1 mM sodium citrate buffer, 1% (wt/vol) agarose (A6013; Sigma), and 0.3 mg of Sabouraud dextrose broth (Difco)/ml. After incubation at 37°C for 3 h, a 10 ml overlay gel of 1% agarose and 6% Sabouraud dextrose broth was poured on the underlay gel and then the plates were incubated overnight at 37°C. The clear-zone diameters were measured to the nearest 0.1 mm and graphed against the peptide concentration. Zone diameters were expressed in units (0.1 mm = 1 unit). For the broth dilution assay, the Candida strains were cultured in LYM broth for 18 h at 30°C. The numbers of yeasts were counted using a hemocytometer. Stock peptide solutions were prepared to a concentration of 320 μg/ml in distilled water, and were then serially diluted twofold, to 5 μg/ml. 100 μl aliquots of the diluted culture media containing candida cells (1 x 10^3) were dispensed into the wells of 96-well polypropylene microtiter plates (Costar 3879, Corning, NY), to which peptide solution (11 μl) was then added. In the experiments conducted to assess the candidacidal activity of peptides in the presence of salt, we used LYM supplemented with 150 mM NaCl for the culture medium, which was mixed with the peptide solution. The antifungal activities were evaluated after 24 h of incubation at 30°C by the observation of visible turbidity the wells. […]

C.albicans CCARM 14021 = assay type: cell-based, Candida albicans
Experimental: as §1, §2

C.albicans CCARM 14022 = assay type: cell-based, Candida albicans
Experimental: as §1, §2

C.albicans SC5413 = assay type: cell-based, Candida albicans; details: SC5413, 24 h
Experimental: as §1, §2

[1] = system: C. guilliermondi CCARM 14018; assay type: cell-based; details: CCARM 14018, 24 h
Experimental: as §1, §2

[2] = system: all tested Candida strains; assay type: cell-based; details: 4 h
Experimental: as §1, §2

[3] = broth dilution, LYM broth, 24 h at 30°C, interval a–b

| Compound | MICs (C.albicans CCARM 14020) [µg/mL] | MICs (C.albicans CCARM 14021; CCARM 14021, 24 h) [µg/mL] | MICs (C.albicans CCARM 14022; CCARM 14022, 24 h) [µg/mL] | MICs (C.albicans SC5413) [µg/mL] | MICs (C.albicans CCARM 14021; [3]) | MICs (C.albicans CCARM 14022; [3]) | MICs [1] [µg/mL] | MIC values [2] [µg/mL] |
| --- | --- | --- | --- | --- | --- | --- | --- | --- |
| CC(C)C[C@H](NC(=O)CNC(=O)[C@H](Cc1c[nH]cn1)NC(=O)[C@H](Cc1c[nH]cn1)NC(=O)[C@H](CCCNC(=N)N)NC(=O)[C@H](CCCCN)NC(=O)[C@H](C)N)C(=O)N[C@@H](CC(N)=O)C(=O)N[C@@H](CSSC[C@H](NC(=O)[C@H](CC(N)=O)NC(=O)[C@H](CC(C)C)NC(=O)CNC(=O)[C@H](Cc1c[nH]cn1)NC(=O)[C@H](Cc1c[nH]cn1)NC(=O)[C@H](CCCNC(=N)N)NC(=O)[C@H](CCCCN)NC(=O)[C@H](C)N)C(=O)N[C@@H](C)C(=O)N[C@@H](CCCCN)C(=O)NCC(=O)N[C@H](C(=O)N[C@@H](CC(C)C)C(=O)N[C@@H](C)C(N)=O)C(C)C)C(=O)N[C@@H](C)C(=O)N[C@@H](CCCCN)C(=O)NCC(=O)N[C@H](C(=O)N[C@@H](CC(C)C)C(=O)N[C@@H](C)C(N)=O)C(C)C [di-PH1] (I: H-AKRHHGLNCAKGVLA-NH2 / II: H-AKRHHGLNCAKGVLA-NH2; disulfide I:9-II:9 (inferred); N-terminus assumed) | 16 to 32 | 4 to 8 | 4 to 8 | 16 to 32 | – | – | – | – |
| AKRHHGLNCAKFH-NH2 [PH2] | 1 to 2 | 1 to 2 | 8 to 16 | 1 to 2 | – | – | – | – |
| AKRHHGLNCAKGVLA-NH2 [PH1] | 16 to 32 | 8 to 16 | 8 to 16 | 16 to 32 | – | – | – | – |
| ALLHHGYKRKFH-NH2 [HHP2] | 8 to 16 | – | – | 16 to 32 | 32< μg/ml | 32< μg/ml | – | – |
| WLNAKRHHGYKRKFH-NH2 [WP1] | 4 to 8 | 8 to 16 | – | 4 to 8 | – | 32< μg/ml | – | – |
| WLNALLHHGYKRKFH-NH2 [HHP1] | 2 to 4 | 2 to 4 | 4 to 8 | 2 to 4 | – | – | 1 to 2 | 2 to 4 |

— paper PMC4769088, “Antifungal Activity and Action Mechanism of Histatin 5-Halocidin Hybrid Peptides against Candida ssp” (PLoS ONE, 2016)
